# Test results published in US20240424010A1, “NICOTINAMIDE RIBOSIDE TRIOLEATES CHLORIDE, COMPOSITIONS CONTAINING THIS COMPOUND, AND METHODS OF MAKING AND USING THIS COMPOUND” (SOCIETE DES PRODUITS NESTLE S.A., priority 2021, published 2024).
# Tests used:
# Assay type in all cases: physicochemical
# [1] = Hydrolysis stability of NRTOCl emulsions and NRCl in water at room temperature for 42 days
# Method: After each specific time of stability for NRTOCl and NRCl emulsions, 1.5 mL of each emulsion was centrifuged (14,000 rpm) for 20 minutes at room temperature. […] However, during this time of stability study, 52.0% NR was intact in water at room temperature. […] During this time, these emulsions were stable without visible phase separation. A little increase in the average size of the NRTO droplets occurred in these emulsions, so that in Cas emulsion, the average size increased from 1020 nm to 1281 nm, and in Cas-Lec emulsion, this parameter increased from 1012 nm to 1106 nm.
# [2] = Hydrolysis stability of NRTOCl and NRCl oil-in-water emulsions and NRCl in water at 35° C. for 26 days; details: 35° C., 26 days; for times more stable than NR(Cl) in emulsion: canola oil-in-water emulsion with sodium caseinate
# Method: The emulsion was prepared using 480 mg of oil stock containing 15 wt. % NRTOCl in canola oil and an aqueous phase (14.52 g) of Na-caseinate (2 wt. %), KCl (0.3 wt. %), NaCl (0.1 wt. %), CaCl2 (0.2 wt. %) and NaN3 (0.01 wt. %).
# The emulsion was-prepared using 480 mg of oil stock containing 15 wt. % NRTOCl in canola oil and 0.025 g of lecithin. The aqueous phase (14.5 g) contained Na-caseinate (2 wt. %), KC (0.3 wt. %), NaCl (0.1 wt. %), CaCl2 (0.2 wt. %) and NaN3 (0.01 wt. %).
# The emulsion was-prepared using 480 mg of oil stock containing 15 wt. % NRTOCl in canola oil and an aqueous phase (14.52 g) of polysorbate 80 (Tween 80) (2 wt. %).
# The emulsion was prepared using around 480 mg of canola oil in an aqueous phase (14.52 g) of NRCl (19 mg), Na-caseinate (2 wt. %), KCl (0.3 wt. %), NaCl (0.1 wt. %), CaCl2 (0.2 wt. %) and NaN3 (0.01 wt. %).
# After each specific time of stability for NRTOCl and NRCl emulsions, 1.5 mL of each emulsion was centrifuged (14,000 rpm) for 20 minutes at room temperature.
# Since NRTOCl is a very hydrophobic compound, to evaluate its stability in oil phase, an emulsion system was used to study the stability of NRTOCl as a function of time. For this purpose, a 15% w/w solution of NRTOCl in canola oil was used for making different emulsions with Na-caseinate, Tween 80 and lecithin as the emulsifiers (2 wt. %) at room temperature.
# When Na-caseinate was used as an emulsifier, the aqueous phase must be a solution of NaCl (0.1 wt. %), CaCl2 (0.2 wt. %) and KCl (0.3 wt. %) because caseinate anion with minus charge and NRTO with positive charge immediately aggregated in DI water. The total oil phase in these emulsions were 3.2 wt. %, and the concentration of NRTOCl in total volume of each emulsion (15 mL) was 4.4 mM. In the emulsions that used Na-caseinate as an emulsifier, NaN3 (0.01 wt. %) was added to prevent the growth of bacteria. When the NRTOCl emulsion was made by 2 wt. % Na-caseinate, its average size and zeta potential in this emulsion (Cas emulsion) were 1020 nm and −14.4 mV respectively.
# After making NRTOCl emulsions, a NRCl in canola oil-in-water emulsion was attempted as a control experiment using 3.2% canola oil. The aqueous phase was a solution of Na-caseinate (2 wt. %), NaCl (0.1 wt. %), CaCl2 (0.2 wt. %), KCl (0.3 wt. %) and NaN3 (0.01 wt. %). The concentration of NRCl in total volume (15 mL) of this emulsion was 4.4 mM. Moreover, 15 mL of NRCl solution in DI water was prepared with 4.4 mM concentration as the other control experiment. After preparing three NRTOCl emulsions and two control experiment samples, hydrolysis stability of each sample was studied at 35° C. for 26 days (FIG. 14). The rate of degradation was measured by determination of the released nicotinamide from each sample. […]
# [3] = Particle size, zeta-potential (dynamic light scattering) and TEM of NRTOCl dispersion and emulsions
# Method: The particle size distribution, mean particle diameter (Zeta average size) and zeta-potential of NRTOCl in DI water were measured by using a commercial dynamic light-scattering device (Nano-ZS, Malvern Instruments, Worcestershire, UK). Tecnai F20 TEM/STEM transmission electron microscope (200 kV) was used for characterizing the structure and morphology of prepared NRTOCl nanoparticles. Although NRTOCl is a quaternary ammonium salt, it was not dissolved in water due to the existence of three groups of oleate fatty ester in its structure. Therefore, for the stability study of NRTOCl, this compound was dispersed in DI water using 1% ethanol as a cosolvent. For this purpose, 15 mg of NRTOCl was dissolved in 0.15 ml of ethanol (1%) and then 14.85 ml of DI water was added to the mixture and gently shaken. […] Although the average size of NRTOCl in this sample was 192 nm, the images of TEM disclosed smaller particles with around 50 nm and oval and spherical shapes with aspect ratio close to unity (FIGS. 10A-10C). In the nanoparticles, the NRTOCl structures are stacked on top of each other layer-by-layer. The highly positive charge of NRTO makes the nanoparticles stable in the aqueous phase. […] The total oil phase in these emulsions were 3.2 wt. %, and the concentration of NRTOCl in total volume of each emulsion (15 mL) was 4.4 mM. In the emulsions that used Na-caseinate as an emulsifier, NaN3 (0.01 wt. %) was added to prevent the growth of bacteria. […] An NRTO in canola oil-in-water emulsion was also prepared, using 2 wt. % Tween 80 as an emulsifier in DI water (Tween emulsion). […] As expected by using Tween 80 as a neutral emulsifier, the positive charge of NRTO droplets was almost intact in the emulsion.
# [4] = NRTOCl dispersed in DI water with 1% ethanol, 1,000 ppm
smiles,measurement,setting,value
"CCCCCCCC/C=C\CCCCCCCC(=O)OC[C@H]1O[C@@H]([n+]2cccc(C(N)=O)c2)[C@H](OC(=O)CCCCCCC/C=C\CCCCCCCC)[C@@H]1OC(=O)CCCCCCC/C=C\CCCCCCCC.[Cl-] [NRTOCl, nicotinamide riboside trioleates chloride]",released NR from NRTO (hydrolysis of ester groups),[1]; all NRTO stability conditions,no released NR
same,hydrolysis of NRTO after 42 days,"[1]; canola oil-in-water emulsion (sodium caseinate), room temperature, 42 days",5%
same,times more stable than NR(Cl) in emulsion,[2],213 times
same,times more stable than NR(Cl) in emulsion,[2]; listed as NRTO,about 213 times
same,remaining amount after 26 days in emulsion,"[2]; canola oil-in-water emulsion, 4.4 mM",93.7%
same,particle size (average size),[3]; [4],192 nm
same,zeta potential,[3]; [4],+65 mV
same,particle size by TEM,"[3]; NRTOCl dispersed in DI water, TEM images",around 50 nm
